Key:
[1] = system: Campylobacter jejuni strain cj49349; assay: Growth on BASB agar supplemented with ciprofloxacin; assay type: cell-based; details: ciprofloxacin at 16 μg per ml; wild-type strain cj49349
[2] = system: ciprofloxacin-resistant Campylobacter jejuni mutants (C to T transition in codon 86 of gyrA); assay: Growth of selected mutants on BASB medium containing ciprofloxacin; assay type: cell-based; details: ciprofloxacin at 16 μg/ml; 12 Campylobacter mutants
[3] = system: Campylobacter jejuni with high-level ciprofloxacin resistance; details: gyrA codon 86 C to T transition; cited from earlier work

Compound: O=C(O)c1cn(C2CC2)c2cc(N3CCNCC3)c(F)cc2c1=O [ciprofloxacin]
- growth on BASB agar supplemented with ciprofloxacin [1]: unable to grow
- growth on BASB medium containing ciprofloxacin [2]: able to grow
- MIC [3]: ≥ 16 µg/mL

— US6355435B1, “Methods for detecting and enumerating Campylobacter jejuni in environmental samples and for identifying antibiotic-resistant strains” (priority 1999, dated 2002)
